According to patent US12331040B2 (Karyopharm Therapeutics Inc., priority 2013, dated 2025):
Where two headings read alike, the source gives them in different places.

Assays:
Assay in all cases: MTT cell proliferation assay
Format in all cases: cell-based
3T3 cells = details: Mus musculus, NIH3T3, approximately 64-72 hours incubation
In short: (§1)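 Cytotoxicity was measured by MTT: OD490 of the solubilized formazan after roughly 4 h with MTT reagent, reported as mean percent inhibition relative to the negative control. Test compounds covered eight concentrations between 1 nM and 30 μM, added to 5,000–10,000 cells per well that had attached overnight.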

Z138 cells = details: Homo sapiens, Z-138, Z138 cells, approximately 64-72 hours incubation
In short: as §1

MS751 cells = details: Homo sapiens, approximately 64-72 hours incubation
In short: as §1

[1] = MS751, MS751 cells, read-out: MTT Assay IC50 MS-751
[2] = read-out: MTT Assay IC50, Z-138
[3] = MS751, MS751 cells, read-out: MTT Assay IC50, MS-751

## CC(=O)c1ccc(-c2cc(Cl)c3oc(CNC(=O)/C=C/c4ccc(N)nc4)cc3c2)s1 [Compound 500, (E)-N-((5-(5-acetylthiophen-2-yl)-7-chlorobenzofuran-2-yl)methyl)-3-(6-aminopyridin-3-yl) acrylamide]
3T3 cells; read-out: MTT Assay IC50 3T3
  IC50: > 10 µM
Z138 cells; read-out: MTT Assay IC50 Z-138
  IC50: 0.1 to 5 µM
MS751 cells; [1]
  IC50: 0.1 to 5 µM

## Nc1ccc(/C=C/C(=O)NCc2cc3cc(-c4ccc(C(=O)CN5CCOCC5)cc4)cc(Cl)c3o2)cn1 [Compound 507, (E)-3-(6-aminopyridin-3-yl)-N-((7-chloro-5-(4-(2-morpholinoacetyl)phenyl)benzofuran-2-yl)methyl)acrylamide]
3T3 cells; read-out: MTT Assay IC50 3T3
  IC50: > 10 µM
Z138 cells; read-out: MTT Assay IC50 Z-138
  IC50: 0.1 to 5 µM
MS751 cells; [1]
  IC50: 0.1 to 5 µM

## Nc1ccc(/C=C/C(=O)NCc2cc3cc(-c4ccc(C(=O)N5CCC(F)(F)CC5)cn4)cc(-c4cc5ccccc5o4)c3o2)cn1 [Compound 668, (E)-3-(6-aminopyridin-3-yl)-N-((5′-(5-(4,4-difluoropiperidine-1-carbonyl)pyridin-2-yl)-2,7′-bibenzofuran-2′-yl)methyl)acrylamide]
3T3 cells; read-out: MTT Assay IC50, 3T3
  IC50: 0.1 to 5 µM
Z138 cells; [2]
  IC50: < 0.1 µM
MS751 cells; [3]
  IC50: < 0.1 µM

## Nc1ccc(/C=C/C(=O)NCc2cc3cc(-c4ccc(C(=O)N5CC(F)(F)C5)cn4)cc(C(F)(F)F)c3o2)cn1 [Compound 645, (E)-3-(6-aminopyridin-3-yl)-N-((5-(5-(3,3-difluoroazetidine-1-carbonyl)pyridin-2-yl)-7-(trifluoromethyl)benzofuran-2-yl)methyl)acrylamide]
3T3 cells; read-out: MTT Assay IC50 3T3
  IC50: > 10 µM
Z138 cells; read-out: MTT Assay IC50 Z-138
  IC50: < 0.1 µM
MS751 cells; [1]
  IC50: 0.1 to 5 µM

## Nc1ccc(/C=C/C(=O)NCc2cc3cc(-c4ccc(C(=O)N5CCC(F)(F)CC5)cc4)cc(-c4ccc(F)c(Cl)c4)c3o2)cn1 [Compound 711, (E)-3-(6-aminopyridin-3-yl)-N-((7-(3-chloro-4-fluorophenyl)-5-(4-(4,4-difluoropiperidine-1-carbonyl)phenyl)benzofuran-2-yl)methyl)acrylamide]
3T3 cells; read-out: MTT Assay IC50, 3T3
  IC50: 0.1 to 5 µM
Z138 cells; [2]
  IC50: < 0.1 µM
MS751 cells; [3]
  IC50: < 0.1 µM

## Cc1noc(C)c1-c1cc(-c2ccc(F)cc2)c2oc(CNC(=O)/C=C/c3ccc(N)nc3)cc2c1 [Compound 694, (E)-3-(6-aminopyridin-3-yl)-N-((5-(3,5-dimethylisoxazol-4-yl)-7-(4-fluorophenyl)benzofuran-2-yl)methyl)acrylamide]
3T3 cells; read-out: MTT Assay IC50, 3T3
  IC50: > 10 µM
Z138 cells; [2]
  IC50: < 0.1 µM
MS751 cells; [3]
  IC50: 0.1 to 5 µM

## O=C(/C=C/c1cccnc1)NCc1cc2cc(-c3ccc(C(=O)N4CCC(F)(F)CC4)cn3)cc(-c3ccncc3)c2o1 [Compound 674]
3T3 cells; read-out: MTT Assay IC50, 3T3
  IC50: < 0.1 µM
Z138 cells; [2]
  IC50: < 0.1 µM
MS751 cells; [3]
  IC50: < 0.1 µM

## CC1(O)CCN(C(=O)c2ccc(-c3cc(C(F)(F)F)c4oc(CNC(=O)/C=C/c5ccc(N)nc5)cc4c3)nc2)C1 (stereo not drawn) [Compound 627, (E)-3-(6-aminopyridin-3-yl)-N-((5-(5-(3-hydroxy-3-methylpyrrolidine-1-carbonyl)pyridin-2-yl)-7-(trifluoromethyl)benzofuran-2-yl)methyl)acrylamide]
3T3 cells; read-out: MTT Assay IC50 3T3
  IC50: > 10 µM
Z138 cells; read-out: MTT Assay IC50 Z-138
  IC50: < 0.1 µM
MS751 cells; [1]
  IC50: < 0.1 µM

## Nc1ccc(/C=C/C(=S)NCc2cc3cc(-c4ccc(C(=S)N5CCC(F)(F)CC5)cn4)cc(C(F)(F)F)c3o2)cn1 [Compound 678, (E)-3-(6-aminopyridin-3-yl)-N-((5-(5-(4,4-difluoropiperidine-1-carbonothioyl)pyridin-2-yl)-7-(trifluoromethyl)benzofuran-2-yl)methyl)prop-2-enethioamide]
3T3 cells; read-out: MTT Assay IC50, 3T3
  IC50: > 10 µM
Z138 cells; [2]
  IC50: 0.1 to 5 µM
MS751 cells; [3]
  IC50: 0.1 to 5 µM

## CN1CCN(C(=O)c2ccc(-c3cc(C(F)(F)F)c4oc(CNC(=O)/C=C/c5ccc(N)nc5)cc4c3)cc2)CC1 [Compound 561, (E)-3-(6-aminopyridin-3-yl)-N-((5-(4-(4-methylpiperazine-1-carbonyl)phenyl)-7-(trifluoromethyl)benzofuran-2-yl)methyl)acrylamide]
3T3 cells; read-out: MTT Assay IC50 3T3
  IC50: 5 to 10 µM
Z138 cells; read-out: MTT Assay IC50 Z-138
  IC50: < 0.1 µM
MS751 cells; [1]
  IC50: < 0.1 µM

## CC1(O)CCN(C(=O)c2ccc(-c3cc(C(F)(F)F)c4oc(CNC(=O)/C=C/c5ccc(N)nc5)cc4c3)nc2)CC1 [Compound 620, (E)-3-(6-aminopyridin-3-yl)-N-((5-(5-(4-hydroxy-4-methylpiperidine-1-carbonyl)pyridin-2-yl)-7-(trifluoromethyl)benzofuran-2-yl)methyl)acrylamide]
3T3 cells; read-out: MTT Assay IC50 3T3
  IC50: > 10 µM
Z138 cells; read-out: MTT Assay IC50 Z-138
  IC50: < 0.1 µM
MS751 cells; [1]
  IC50: < 0.1 µM

## Cc1cc(F)ncc1-c1cc(-c2ccc(C(=O)N3CCC(F)(F)CC3)cc2)cc2cc(CNC(=O)/C=C/c3ccc(N)nc3)oc12 [Compound 743, (E)-3-(6-aminopyridin-3-yl)-N-((5-(4-(4,4-difluoropiperidine-1-carbonyl)phenyl)-7-(6-fluoro-4-methylpyridin-3-yl)benzofuran-2-yl)methyl)acrylamide]
3T3 cells; read-out: MTT Assay IC50, 3T3
  IC50: 0.1 to 5 µM
Z138 cells; [2]
  IC50: < 0.1 µM
MS751 cells; [3]
  IC50: < 0.1 µM

## Nc1ccc(/C=C/C(=O)NCc2cc3cc(-c4ccc(C(=O)N5CCC(F)(F)CC5)cc4)cc(OC(F)(F)F)c3o2)cn1 [Compound 686, (E)-3-(6-aminopyridin-3-yl)-N-((5-(4-(4,4-difluoropiperidine-1-carbonyl)phenyl)-7-(trifluoromethoxy)benzofuran-2-yl)methyl)acrylamide]
3T3 cells; read-out: MTT Assay IC50, 3T3
  IC50: > 10 µM
Z138 cells; [2]
  IC50: 0.1 to 5 µM
MS751 cells; [3]
  IC50: 0.1 to 5 µM

## O=C(/C=C/c1cscn1)NCc1cc2cc(-c3ccc(C(=O)N4CCOCC4)cc3)cc(Cl)c2o1 [Compound 542]
3T3 cells; read-out: MTT Assay IC50 3T3
  IC50: > 10 µM
Z138 cells; read-out: MTT Assay IC50 Z-138
  IC50: 0.1 to 5 µM
MS751 cells; [1]
  IC50: 0.1 to 5 µM

## Nc1ccc(/C=C/C(=O)NCc2cc3cc(-c4ccc(C(=O)N5CCC(F)(F)CC5)cc4)cc(-c4cc5ccccc5o4)c3o2)cn1 [Compound 699]
3T3 cells; read-out: MTT Assay IC50, 3T3
  IC50: 5 to 10 µM
Z138 cells; [2]
  IC50: < 0.1 µM
MS751 cells; [3]
  IC50: < 0.1 µM

## Nc1ccc(/C=C/C(=O)NCc2cc3cc(-c4ccc(C(=O)N5CCC(F)(F)CC5)cn4)c(C(F)(F)F)cc3o2)cn1 [Compound 664, (E)-3-(6-aminopyridin-3-yl)-N-((5-(5-(4,4-difluoropiperidine-1-carbonyl)pyridin-2-yl)-6-(trifluoromethyl)benzofuran-2-yl)methyl)acrylamide]
3T3 cells; read-out: MTT Assay IC50, 3T3
  IC50: > 10 µM
Z138 cells; [2]
  IC50: > 10 µM
MS751 cells; [3]
  IC50: > 10 µM

## Nc1ccc(/C=C/C(=O)NCc2cc3cc(-c4ccc(C(=O)N5CCCCC5)cc4)cc(Cl)c3o2)cn1 [Compound 600, (E)-3-(6-aminopyridin-3-yl)-N-((7-chloro-5-(4-(piperidine-1-carbonyl)phenyl)benzofuran-2-yl)methyl)acrylamide]
3T3 cells; read-out: MTT Assay IC50 3T3
  IC50: > 10 µM
Z138 cells; read-out: MTT Assay IC50 Z-138
  IC50: 0.1 to 5 µM
MS751 cells; [1]
  IC50: 5 to 10 µM

## Nc1ccc(/C=C/C(=O)NCc2cc3cc(-c4ccc(C(=O)NNc5ccccn5)cc4)cc(C(F)(F)F)c3o2)cn1 [Compound 518, (E)-3-(6-aminopyridin-3-yl)-N-((5-(4-(2-(pyridin-2-yl)hydrazinecarbonyl)phenyl)-7-(trifluoromethyl)benzofuran-2-yl)methyl)acrylamide]
3T3 cells; read-out: MTT Assay IC50 3T3
  IC50: > 10 µM
Z138 cells; read-out: MTT Assay IC50 Z-138
  IC50: 0.1 to 5 µM
MS751 cells; MS751 cells, read-out: MTT Assay IC50 MS-751
  IC50: 0.1 to 5 µM

## CC1(F)CCN(C(=O)c2ccc(-c3cc(C(F)(F)F)c4oc(CNC(=O)/C=C/c5ccc(N)nc5)cc4c3)cc2)CC1 [Compound 604, (E)-3-(6-aminopyridin-3-yl)-N-((5-(4-(4-fluoro-4-methylpiperidine-1-carbonyl)phenyl)-7-(trifluoromethyl)benzofuran-2-yl)methyl)acrylamide]
3T3 cells; read-out: MTT Assay IC50 3T3
  IC50: > 10 µM
Z138 cells; read-out: MTT Assay IC50 Z-138
  IC50: 0.1 to 5 µM
MS751 cells; [1]
  IC50: 0.1 to 5 µM

## O=C(/C=C/c1cccnn1)NCc1cc2cc(-c3ccc(C(=O)N4CCOCC4)cc3)cc(Cl)c2o1 [Compound 540, (E)-N-((7-chloro-5-(4-(morpholine-4-carbonyl)phenyl)benzofuran-2-yl)methyl)-3-(pyridazin-3-yl)acrylamide]
3T3 cells; read-out: MTT Assay IC50 3T3
  IC50: 5 to 10 µM
Z138 cells; read-out: MTT Assay IC50 Z-138
  IC50: 5 to 10 µM
MS751 cells; [1]
  IC50: 5 to 10 µM

## Nc1ccc(/C=C/C(=O)NCc2cc3cc(-c4ccc(C(F)(F)F)cc4)cc(-c4ccc(F)cc4)c3o2)cn1 [Compound 692, (E)-3-(6-aminopyridin-3-yl)-N-((7-(4-fluorophenyl)-5-(4-(trifluoromethyl)phenyl)benzofuran-2-yl)methyl)acrylamide]
3T3 cells; read-out: MTT Assay IC50, 3T3
  IC50: > 10 µM
Z138 cells; [2]
  IC50: 0.1 to 5 µM
MS751 cells; [3]
  IC50: 0.1 to 5 µM

## Nc1ccc(/C=C/C(=O)NCc2cc3cc(-c4ccc(Oc5ccc(F)cc5)cc4)cc(-c4ccc(F)cc4)c3o2)cn1 [Compound 701, (E)-3-(6-aminopyridin-3-yl)-N-((5-(4-(4-fluorophenoxy)phenyl)-7-(4-fluorophenyl)benzofuran-2-yl)methyl)acrylamide]
3T3 cells; read-out: MTT Assay IC50, 3T3
  IC50: > 10 µM
Z138 cells; [2]
  IC50: 0.1 to 5 µM
MS751 cells; [3]
  IC50: 0.1 to 5 µM

## Nc1ccc(/C=C/C(=O)NCc2cc3cc(-c4ccc(C(=O)N5CCC(F)(F)CC5)cc4)cc(-c4ccc(F)nc4)c3o2)cn1 [Compound 735, (E)-3-(6-aminopyridin-3-yl)-N-((5-(4-(4,4-difluoropiperidine-1-carbonyl)phenyl)-7-(6-fluoropyridin-3-yl)benzofuran-2-yl)methyl)acrylamide]
3T3 cells; read-out: MTT Assay IC50, 3T3
  IC50: 0.1 to 5 µM
Z138 cells; [2]
  IC50: < 0.1 µM
MS751 cells; [3]
  IC50: < 0.1 µM

## CC1(C)CN(C(=O)c2ccc(-c3cc(C(F)(F)F)c4oc(CNC(=O)/C=C/c5ccc(N)nc5)cc4c3)cc2)CCO1 [Compound 530, (E)-3-(6-aminopyridin-3-yl)-N-((5-(4-(2,2-dimethylmorpholine-4-carbonyl)phenyl)-7-(trifluoromethyl)benzofuran-2-yl)methyl)acrylamide]
3T3 cells; read-out: MTT Assay IC50 3T3
  IC50: > 10 µM
Z138 cells; read-out: MTT Assay IC50 Z-138
  IC50: 0.1 to 5 µM
MS751 cells; [1]
  IC50: 0.1 to 5 µM
